Results reported in patent publication US20260263429A1, “INHIBITORS OF CA 2+/CALMODULIN-DEPENDENT PROTEIN KINASE II (CAMKII) THAT DO NOT INHIBIT LONG-TERM POTENTIATION (LTP) INDUCTION AND THERAPEUTIC USES THEREOF” (The Regents of the University of Colorado, A Body Corporate, priority 2023, published 2026).

Columns and labels:
[1] = molecular target: AMPKα1(h) (Homo sapiens, UniProt Q13131); assay: Kinase panel, residual kinase activity at 1 μM inhibitor; assay type: biochemical
Method: (§1) In this table, residual kinase activity in the presence of 1 μM of each inhibitor is illustrated as a percentage of maximal activity.

[2] = molecular target: Arg(h) (Homo sapiens, UniProt P42684); assay: as above; assay type: biochemical
Method: as §1

[3] = molecular target: CDK2/cyclinE(h) (Homo sapiens, UniProt P24941); assay: as above; assay type: biochemical
Method: as §1

[4] = molecular target: CDK5/p35(h) (Homo sapiens, UniProt Q00535); assay: as above; assay type: biochemical
Method: as §1

[5] = molecular target: CaMKIIα(h) (Homo sapiens, UniProt Q9UQM7); assay: as above; assay type: biochemical
Method: as §1

[6] = molecular target: CaMKIIβ(h) (Homo sapiens, UniProt Q13554); assay: as above; assay type: biochemical
Method: as §1

[7] = molecular target: FGFR1(h) (Homo sapiens, UniProt P11362); assay: as above; assay type: biochemical
Method: as §1

[8] = molecular target: Flt3(h) (Homo sapiens, UniProt P36888); assay: as above; assay type: biochemical
Method: as §1

[9] = molecular target: IGF-1R(h) (Homo sapiens, UniProt P08069); assay: as above; assay type: biochemical
Method: as §1

[10] = molecular target: JAK2(h) (Homo sapiens, UniProt O60674); assay: as above; assay type: biochemical
Method: as §1

[11] = molecular target: JAK3(h) (Homo sapiens, UniProt P52333); assay: as above; assay type: biochemical
Method: as §1

[12] = molecular target: JNK2α2(h) (Homo sapiens, UniProt P45984); assay: as above; assay type: biochemical
Method: as §1

[13] = molecular target: MAPK1(h) (Homo sapiens, UniProt P27361); assay: as above; assay type: biochemical
Method: as §1

[14] = molecular target: MEK1(h) (Homo sapiens, UniProt Q02750); assay: as above; assay type: biochemical
Method: as §1

[15] = molecular target: PAK2(h) (Homo sapiens, UniProt Q13177); assay: as above; assay type: biochemical
Method: as §1

[16] = molecular target: PKBγ(h) (Homo sapiens, UniProt Q9Y243); assay: as above; assay type: biochemical
Method: as §1

[17] = molecular target: PKCδ(h) (Homo sapiens, UniProt Q05655); assay: as above; assay type: biochemical
Method: as §1

[18] = molecular target: PKG1α(h) (Homo sapiens, UniProt Q13976); assay: as above; assay type: biochemical
Method: as §1

[19] = molecular target: PKG1β(h) (Homo sapiens, UniProt Q13976); assay: as above; assay type: biochemical
Method: as §1

[20] = molecular target: Pim-1(h) (Homo sapiens, UniProt P11309); assay: as above; assay type: biochemical
Method: as §1

[21] = molecular target: Pim-3(h) (Homo sapiens, UniProt Q86V86); assay: as above; assay type: biochemical
Method: as §1

[22] = molecular target: Ret(h) (Homo sapiens, UniProt P07949); assay: as above; assay type: biochemical
Method: as §1

[23] = molecular target: p70S6K(h) (Homo sapiens, UniProt P23443); assay: as above; assay type: biochemical
Method: as §1

[24] = test system: paCaMKII T286A movement to synapses and spine growth; assay: Photoactivation of paCaMKII T286A in hippocampal neurons (structural LTP); assay type: cell-based; conditions: AS283 10 μM; AS397
Source text: In this Example, two sets of pharmacogenetic tools were used in combination with the photoactivable paCaMKII to test whether structural CaMKII functions are not only the necessary but also the sufficient CaMKII functions in LTP. Specifically, in one exemplary method, hippocampal neurons were examined for sLTP (e.g., the LTP-associated growth of dendritic spines) in response to direct photoactivation of paCaMKII without any other stimulation that could trigger additional signaling pathways. […] In both cases, suppressing enzymatic CaMKII activity while allowing or enhancing GluN2B binding enabled induction of structural LTP. […]
paCaMKII stimulation in hippocampal neurons. […] Neurons were then imaged 15 minutes after stimulation and assessed for CaMKII synaptic enrichment and dendritic spine growth.
Image analysis of hippocampal neurons. […] 2D maximum intensity projection images were then generated and analyzed using a custom-build program in ImageJ. The program utilizes combinatorial thresholding to mask regions of the cell that contain high intensity PSD-95 puncta (the post-synaptic side of excitatory synapses in dendritic spines) and regions of the dendritic shaft that contain no fluorescence intensity of PSD-95. […] Spine growth was assessed by measuring the changes in mCherry cell fill fluorescence intensity within dendritic spine ROIs (F/F0).

Chain of MEK1(h) (Q02750 whole entry): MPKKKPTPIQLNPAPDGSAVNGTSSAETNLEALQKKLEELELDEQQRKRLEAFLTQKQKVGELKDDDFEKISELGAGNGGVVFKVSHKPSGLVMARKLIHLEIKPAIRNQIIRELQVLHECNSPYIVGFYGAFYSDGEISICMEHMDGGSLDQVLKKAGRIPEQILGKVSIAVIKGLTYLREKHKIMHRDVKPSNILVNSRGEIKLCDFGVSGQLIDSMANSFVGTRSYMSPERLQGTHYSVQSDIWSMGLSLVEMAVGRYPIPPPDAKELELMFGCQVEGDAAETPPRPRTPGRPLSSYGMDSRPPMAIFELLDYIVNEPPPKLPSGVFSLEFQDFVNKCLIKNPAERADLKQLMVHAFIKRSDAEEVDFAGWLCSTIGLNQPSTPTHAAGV
Chain of CDK5/p35(h) (Q00535 whole entry): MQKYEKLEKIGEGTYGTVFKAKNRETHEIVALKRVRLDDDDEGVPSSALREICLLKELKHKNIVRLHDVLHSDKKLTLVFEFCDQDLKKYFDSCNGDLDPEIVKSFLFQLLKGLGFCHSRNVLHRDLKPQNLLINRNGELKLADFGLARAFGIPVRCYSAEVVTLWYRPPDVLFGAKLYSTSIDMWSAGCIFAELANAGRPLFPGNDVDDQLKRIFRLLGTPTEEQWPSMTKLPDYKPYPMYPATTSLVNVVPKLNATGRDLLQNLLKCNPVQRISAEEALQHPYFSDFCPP
Chain of CDK5/p35(h) (Q15078 whole entry partner): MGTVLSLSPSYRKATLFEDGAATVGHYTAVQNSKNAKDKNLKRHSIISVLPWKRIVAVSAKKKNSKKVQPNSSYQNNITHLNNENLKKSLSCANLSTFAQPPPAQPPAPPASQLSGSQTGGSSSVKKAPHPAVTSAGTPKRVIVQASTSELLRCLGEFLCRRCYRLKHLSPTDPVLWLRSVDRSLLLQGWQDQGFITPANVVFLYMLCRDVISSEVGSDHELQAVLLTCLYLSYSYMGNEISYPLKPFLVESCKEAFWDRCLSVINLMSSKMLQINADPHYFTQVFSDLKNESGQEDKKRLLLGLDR
Chain of JAK3(h) (P52333 whole entry): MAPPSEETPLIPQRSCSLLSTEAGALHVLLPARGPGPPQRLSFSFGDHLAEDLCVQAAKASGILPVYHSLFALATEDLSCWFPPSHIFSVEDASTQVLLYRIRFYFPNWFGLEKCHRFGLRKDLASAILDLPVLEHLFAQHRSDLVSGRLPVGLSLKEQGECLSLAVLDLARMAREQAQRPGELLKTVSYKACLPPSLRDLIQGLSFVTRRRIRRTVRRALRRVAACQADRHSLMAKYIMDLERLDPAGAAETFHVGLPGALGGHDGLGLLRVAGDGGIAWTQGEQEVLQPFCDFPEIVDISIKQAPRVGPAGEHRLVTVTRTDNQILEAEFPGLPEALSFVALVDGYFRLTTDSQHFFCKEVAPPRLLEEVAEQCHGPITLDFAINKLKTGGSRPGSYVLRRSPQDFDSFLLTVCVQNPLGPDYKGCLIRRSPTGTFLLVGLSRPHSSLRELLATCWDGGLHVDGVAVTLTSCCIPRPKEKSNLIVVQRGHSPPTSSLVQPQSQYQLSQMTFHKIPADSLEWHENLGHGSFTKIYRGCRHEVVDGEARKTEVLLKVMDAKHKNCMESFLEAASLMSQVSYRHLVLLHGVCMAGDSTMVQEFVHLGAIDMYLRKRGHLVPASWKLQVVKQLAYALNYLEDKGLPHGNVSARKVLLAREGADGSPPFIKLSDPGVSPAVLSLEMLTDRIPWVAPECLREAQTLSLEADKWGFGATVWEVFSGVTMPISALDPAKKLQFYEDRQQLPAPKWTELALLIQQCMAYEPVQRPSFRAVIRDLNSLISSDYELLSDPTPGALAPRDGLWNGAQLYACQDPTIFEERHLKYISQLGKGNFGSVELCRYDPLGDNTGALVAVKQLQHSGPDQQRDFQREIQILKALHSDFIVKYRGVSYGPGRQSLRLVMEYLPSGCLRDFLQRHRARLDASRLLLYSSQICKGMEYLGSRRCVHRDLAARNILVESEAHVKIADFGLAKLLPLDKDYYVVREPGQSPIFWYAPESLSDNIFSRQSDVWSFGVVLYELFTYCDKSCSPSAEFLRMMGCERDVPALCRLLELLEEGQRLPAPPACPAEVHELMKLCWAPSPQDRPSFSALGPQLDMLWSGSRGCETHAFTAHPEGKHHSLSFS
Chain of PAK2(h) (Q13177 whole entry): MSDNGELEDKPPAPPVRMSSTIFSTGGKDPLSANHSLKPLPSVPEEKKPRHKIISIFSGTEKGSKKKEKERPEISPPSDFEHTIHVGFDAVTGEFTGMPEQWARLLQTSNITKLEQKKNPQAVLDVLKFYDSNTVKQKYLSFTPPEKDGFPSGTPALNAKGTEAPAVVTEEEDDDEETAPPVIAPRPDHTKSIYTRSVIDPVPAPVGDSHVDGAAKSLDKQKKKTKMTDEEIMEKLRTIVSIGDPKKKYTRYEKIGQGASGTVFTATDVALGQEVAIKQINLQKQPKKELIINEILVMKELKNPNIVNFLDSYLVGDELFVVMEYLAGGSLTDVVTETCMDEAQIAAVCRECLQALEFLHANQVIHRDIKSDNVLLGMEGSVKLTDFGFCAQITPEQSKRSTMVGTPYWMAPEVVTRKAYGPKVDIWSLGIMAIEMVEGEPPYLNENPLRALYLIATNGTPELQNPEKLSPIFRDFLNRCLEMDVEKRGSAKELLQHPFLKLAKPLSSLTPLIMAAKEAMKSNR
Chain of JNK2α2(h) (P45984 whole entry): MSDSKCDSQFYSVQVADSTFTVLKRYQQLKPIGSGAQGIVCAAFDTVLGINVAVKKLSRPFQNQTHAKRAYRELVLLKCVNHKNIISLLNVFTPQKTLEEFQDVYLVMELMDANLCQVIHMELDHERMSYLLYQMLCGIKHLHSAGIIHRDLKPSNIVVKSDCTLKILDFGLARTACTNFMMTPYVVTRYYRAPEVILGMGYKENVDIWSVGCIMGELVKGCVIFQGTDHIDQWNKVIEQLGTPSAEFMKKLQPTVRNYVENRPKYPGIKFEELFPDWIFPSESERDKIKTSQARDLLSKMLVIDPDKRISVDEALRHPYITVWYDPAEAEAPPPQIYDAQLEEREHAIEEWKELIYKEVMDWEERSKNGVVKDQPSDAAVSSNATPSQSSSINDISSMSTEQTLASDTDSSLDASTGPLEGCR
Chain of IGF-1R(h) (P08069 31-1367): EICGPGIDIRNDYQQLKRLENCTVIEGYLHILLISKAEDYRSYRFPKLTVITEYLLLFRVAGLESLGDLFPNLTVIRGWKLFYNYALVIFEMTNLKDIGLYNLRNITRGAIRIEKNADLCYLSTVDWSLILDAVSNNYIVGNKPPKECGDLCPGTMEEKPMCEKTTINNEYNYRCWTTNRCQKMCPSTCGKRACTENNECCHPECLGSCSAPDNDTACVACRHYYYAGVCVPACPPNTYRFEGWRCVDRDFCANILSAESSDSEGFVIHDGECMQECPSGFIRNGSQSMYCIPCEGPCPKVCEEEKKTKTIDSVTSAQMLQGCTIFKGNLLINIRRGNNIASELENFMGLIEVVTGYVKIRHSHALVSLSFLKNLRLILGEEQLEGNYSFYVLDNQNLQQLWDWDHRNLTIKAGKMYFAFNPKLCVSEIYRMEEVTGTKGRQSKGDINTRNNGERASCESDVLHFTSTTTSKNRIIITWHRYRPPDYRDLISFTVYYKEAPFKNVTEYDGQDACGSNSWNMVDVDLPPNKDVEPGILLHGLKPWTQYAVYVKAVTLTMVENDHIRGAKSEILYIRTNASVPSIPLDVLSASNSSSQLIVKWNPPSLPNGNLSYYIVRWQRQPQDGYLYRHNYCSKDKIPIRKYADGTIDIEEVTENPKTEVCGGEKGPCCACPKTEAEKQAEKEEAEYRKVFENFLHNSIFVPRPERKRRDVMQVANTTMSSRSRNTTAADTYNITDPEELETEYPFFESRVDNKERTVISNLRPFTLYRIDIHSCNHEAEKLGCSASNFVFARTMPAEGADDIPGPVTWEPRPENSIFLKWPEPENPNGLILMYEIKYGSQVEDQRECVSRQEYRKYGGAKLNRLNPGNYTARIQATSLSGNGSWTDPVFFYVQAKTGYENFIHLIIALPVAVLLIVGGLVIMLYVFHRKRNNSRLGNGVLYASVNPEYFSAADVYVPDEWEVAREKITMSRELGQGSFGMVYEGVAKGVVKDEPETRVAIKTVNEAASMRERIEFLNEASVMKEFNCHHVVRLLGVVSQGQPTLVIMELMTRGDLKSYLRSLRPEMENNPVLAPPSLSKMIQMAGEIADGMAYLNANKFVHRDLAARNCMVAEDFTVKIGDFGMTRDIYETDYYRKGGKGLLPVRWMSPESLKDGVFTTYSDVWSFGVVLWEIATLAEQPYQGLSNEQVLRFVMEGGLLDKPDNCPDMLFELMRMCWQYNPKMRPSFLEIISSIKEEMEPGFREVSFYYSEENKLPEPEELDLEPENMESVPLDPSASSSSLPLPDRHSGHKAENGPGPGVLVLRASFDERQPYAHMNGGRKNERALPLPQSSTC
Chain of PKBγ(h) (Q9Y243 whole entry): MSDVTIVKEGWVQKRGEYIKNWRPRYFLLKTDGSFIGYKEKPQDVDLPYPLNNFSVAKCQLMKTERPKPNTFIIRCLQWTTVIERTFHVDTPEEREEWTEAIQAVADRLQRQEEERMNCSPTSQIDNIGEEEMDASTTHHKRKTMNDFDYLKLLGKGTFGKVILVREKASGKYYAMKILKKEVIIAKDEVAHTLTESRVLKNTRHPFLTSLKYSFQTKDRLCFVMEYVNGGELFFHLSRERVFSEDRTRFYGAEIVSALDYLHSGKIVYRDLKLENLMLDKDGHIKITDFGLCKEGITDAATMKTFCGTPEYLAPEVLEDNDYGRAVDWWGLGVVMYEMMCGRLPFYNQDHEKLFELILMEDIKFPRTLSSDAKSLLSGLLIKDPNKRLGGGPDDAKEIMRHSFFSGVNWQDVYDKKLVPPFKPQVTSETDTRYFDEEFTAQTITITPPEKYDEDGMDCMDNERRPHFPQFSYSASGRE

SMILES: NCCNc1cccc(-c2ccnc3[nH]c4ccccc4c23)c1 [AS283]
- residual kinase activity, AMPKα1(h) [1]: 70 percentage of maximal activity
- residual kinase activity, Arg(h) [2]: 96 percentage of maximal activity
- residual kinase activity, CDK2/cyclinE(h) [3]: 41 percentage of maximal activity
- residual kinase activity, CDK5/p35(h) [4]: 33 percentage of maximal activity
- residual kinase activity, CaMKIIα(h) [5]: 3 percentage of maximal activity
- residual kinase activity, CaMKIIβ(h) [6]: 5 percentage of maximal activity
- residual kinase activity, FGFR1(h) [7]: 58 percentage of maximal activity
- residual kinase activity, Flt3(h) [8]: 3 percentage of maximal activity
- residual kinase activity, IGF-1R(h) [9]: 110 percentage of maximal activity
- residual kinase activity, JAK2(h) [10]: 121 percentage of maximal activity
- residual kinase activity, JAK3(h) [11]: 92 percentage of maximal activity
- residual kinase activity, JNK2α2(h) [12]: 82 percentage of maximal activity
- residual kinase activity, MAPK1(h) [13]: 102 percentage of maximal activity
- residual kinase activity, MEK1(h) [14]: 85 percentage of maximal activity
- residual kinase activity, PAK2(h) [15]: 76 percentage of maximal activity
- residual kinase activity, PKBγ(h) [16]: 42 percentage of maximal activity
- residual kinase activity, PKCδ(h) [17]: 39 percentage of maximal activity
- residual kinase activity, PKG1α(h) [18]: 48 percentage of maximal activity
- residual kinase activity, PKG1β(h) [19]: 38 percentage of maximal activity
- residual kinase activity, Pim-1(h) [20]: 50 percentage of maximal activity
- residual kinase activity, Pim-3(h) [21]: 97 percentage of maximal activity
- residual kinase activity, Ret(h) [22]: 44 percentage of maximal activity
- residual kinase activity, p70S6K(h) [23]: 18 percentage of maximal activity
- CaMKII movement to synapses after photoactivation of paCaMKII T286A [24]: robust CaMKII movement
- spine growth (structural LTP) after photoactivation of paCaMKII T286A [24]: spine growth
